The target in the test is T1, human mAChR M1 (Homo sapiens, UniProt P11229).
T1 sequence (P11229 1-460): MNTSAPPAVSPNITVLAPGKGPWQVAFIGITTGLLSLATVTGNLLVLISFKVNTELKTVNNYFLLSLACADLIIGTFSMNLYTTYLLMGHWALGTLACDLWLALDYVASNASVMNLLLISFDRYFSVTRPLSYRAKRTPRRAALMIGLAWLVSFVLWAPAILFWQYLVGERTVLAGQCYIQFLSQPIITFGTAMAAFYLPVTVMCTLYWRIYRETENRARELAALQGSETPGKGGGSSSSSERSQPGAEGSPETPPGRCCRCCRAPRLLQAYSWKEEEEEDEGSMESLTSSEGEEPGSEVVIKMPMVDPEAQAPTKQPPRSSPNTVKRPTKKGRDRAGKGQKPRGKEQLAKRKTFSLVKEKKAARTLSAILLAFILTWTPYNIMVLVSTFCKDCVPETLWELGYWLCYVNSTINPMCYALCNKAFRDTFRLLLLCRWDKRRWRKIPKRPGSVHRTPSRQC
In words: mAChR M1 cell-based functional assay: calcium mobilization, positive allosteric modulator mode (increase in EC20 acetylcholine response). The following applies: for Emax: read-out: Human M1 Emax (%). The text has this: a. Cell Lines Expressing Muscarinic Acetylcholine Receptors
Chinese hamster ovary (CHO-K1) cells stably expressing rat (r)M1 were purchased from the American Type Culture Collection and cultured according to their indicated protocol. CHO cells stably expressing human (h)M2, hM3, and hM5 were described previously (Levey, et al., 1991); hMi and hM4 cDNAs were purchased from Missouri S&T cDNA Resource; rM4 cDNA was provided by T. I. Bonner (National Institutes of Health, Bethesda, Md.). rM2 and rM3 were cloned from a rat brain cDNA library and sequence verified. hMi, rM2, rM3, hM4, and rM4 cDNAs were used to stably transfect CHO-K1 cells purchased from the American Type Culture Collection using Lipofectamine2000. To make stable rM2, hM2, rM3, hM4, and rM4 cell lines for use in calcium mobilization assays, these cells also were stably transfected with a chimeric G-protein (Gqi5) (provided by B. R. Conklin, University of California, San Francisco) using Lipofectamine 2000. rMi, hMi, rM3, hM3, rM5, and hM5 cells were grown in Ham's F-12 medium containing 10% heat-inactivated fetal bovine serum (FBS), 20 mM HEPES, and 50 μg/mL G418 sulfate. rM2-Gqi5, hM2-Gqi5, and hM4-Gqi5 cells were grown in the same medium also containing 500 μg/mL Hygromycin B. Stable rM4-Gqi5 cells were grown in DMEM containing 10% heat-inactivated FBS, 20 mM HEPES, 400 μg/mL G418 sulfate, and 500 μg/mL Hygromycin B.
b. Cell-Based Functional Assay of Muscarinic Acetylcholine Receptor Activity
For high throughput measurement of agonist-evoked increases in intracellular calcium, CHO-K1 cells stably expressing muscarinic receptors were plated in growth medium lacking G418 and hygromycin at 15,000 cells/20 μL/well in Greiner 384-well black-walled, tissue culture (TC)-treated, clear-bottom plates (VWR). Cells were incubated overnight at 37° C. and 5% CO2. The next day, cells were washed using an ELX 405 (BioTek) with four washes (80 μL) of assay buffer then aspirated to 20 μL. Next, 20 μL of 16 μM Fluo-4/acetoxymethyl ester (Invitrogen, Carlsbad, Calif.) prepared as a 2.3 mM stock in DMSO and mixed in a 1:1 ratio with 10% (w/v) Pluronic F-127 and diluted in assay buffer was added to the wells and the cell plates were incubated for 50 min at 37° C. and 5% CO2. Dye was removed by washing with the ELX 405 (four […], washes of assay buffer) then aspirated to 20 μL. Compound master plates were formatted in an 11 point CRC format (1:3 dilutions) in 100% DMSO with a starting concentration of 10 mM using the BRAVO liquid handler (Agilent). Test compound CRCs were then transferred to daughter plates (240 nL) using the Echo acoustic plate reformatter (Labcyte, Sunnyvale, Calif.) and then diluted into assay buffer (40 μL) to a 2× stock using a Thermo Fisher Combi (Thermo Fisher Scientific, Waltham, Mass.).
Calcium flux was measured using the Functional Drug Screening System (FDSS) 6000 (Hamamatsu Corporation, Tokyo, Japan) as an increase in the fluorescent static ratio. Compounds were applied to cells (20 μL, 2×) using the automated system of the FDSS 6000 at 4 s into the 300 s protocol and the data were collected at 1 Hz. At 144 s into the 300s protocol, 10 μL of an EC20 concentration of the muscarinic receptor agonist acetylcholine was added (5×), followed by the addition of 12 μL an EC80 concentration of acetylcholine at the 230 s time point (5×). Agonist activity was analyzed as a concentration-dependent increase in calcium mobilization upon compound addition. Positive allosteric modulator activity was analyzed as a concentration-dependent increase in the EC20 acetylcholine response. Antagonist activity was analyzed as a concentration-dependent decrease in the EC80 acetylcholine response. Concentration-response curves were generated using a four-parameter logistical equation in XLfit curve fitting software (IDBS, Bridgewater, N.J.) for Excel (Microsoft, Redmond, Wash.) or Prism (GraphPad Software, Inc., San Diego, Calif.).
For orientation: Calcium assays in cells follow changes in intracellular calcium, usually with a dye or a luminescent sensor.

Setting [1] is: Table 2, human M1, read-out: Human M1 EC50.
Where [2] appears, read: Table 1, mAChR M1 cell-based functional assay, PAM mode, species not given, read-out: EC50.

We go through 19 compounds from patent publication US11111251B2, “Positive allosteric modulators of the muscarinic acetylcholine receptor M1” (Vanderbilt University, priority 2016, dated 2021).

Read-outs that look alike come from different tables or passages of the source.

Take `Cc1ncc(Cc2cc(C(=O)N[C@@H]3CCCC[C@H]3O)nc3ccsc23)s1` [Compound 136, N-[(1R,2R)-2-hydroxycyclohexyl]-7-[(2-methylthiazol-5-yl)methyl]thieno[3,2-b]pyridine-5-carboxamide]: under setting [1], the EC50 came out at 359 nM. Also, the Emax (Table 2, human M1) turned out to be 81%.
The corresponding values for `Cn1cc(-c2ccc(Cc3cc(C(=O)NC4CCOCC4(C)C)nc4ccsc34)cc2)cn1` (stereo not drawn) [Compound 379, N-(3,3-dimethyltetrahydropyran-4-yl)-7-[[4-(1-methylpyrazol-4-yl)phenyl]methyl]thieno[3,2-b]pyridine-5-carboxamide] are 150 nM and 53.9%.
The corresponding values for `O=C(NCC1CCCCO1)c1cc(Cc2ccc(-n3cccn3)cc2)c2sccc2n1` (stereo not drawn) [Compound 289, 7-[(4-pyrazol-1-ylphenyl)methyl]-N-(tetrahydropyran-2-ylmethyl)thieno[3,2-b]pyridine-5-carboxamide] are 1160 nM and 80.7%.
Turning to `CO[C@@H]1CCCC[C@H]1NC(=O)c1cc(Cc2cnc(C)nc2)c2sccc2n1` [Compound 130, N-[(1R,2R)-2-methoxycyclohexyl]-7-[(2-methylpyrimidin-5-yl)methyl]thieno[3,2-b]pyridine-5-carboxamide], the EC50 under setting [1] is more than 10000 nM. Besides, the Emax (Table 2, human M1) was 20.1%.
The corresponding values for `Cn1cc(-c2ccc(Cc3cc(C(=O)NC4CCOCC4)nc4ccsc34)cc2)nn1` [Compound 229, 7-[[4-(1-methyltriazol-4-yl)phenyl]methyl]-N-tetrahydropyran-4-yl-thieno[3,2-b]pyridine-5-carboxamide] are 27.1 nM and 78.6%.
As for `Cn1ccc2nc(C(=O)NC3CCOCC3)cc(Cc3ccc(-n4cccn4)cc3)c21` [Compound 455, 1-methyl-7-[(4-pyrazol-1-ylphenyl)methyl]-N-tetrahydropyran-4-yl-pyrrolo[3,2-b]pyridine-5-carboxamide], the 50% effective concentration (EC50) under setting [1] was 136 nM. The Emax (Table 2, human M1) was found to be 75.1%.
Turning to `Cn1cc(-c2ccc(Cc3cc(C(=O)N[C@H]4CCCCC[C@@H]4O)nc4ccsc34)cn2)cn1` [Compound 226, N-[(1S,2S)-2-hydroxycycloheptyl]-7-[[6-(1-methylpyrazol-4-yl)-3-pyridyl]methyl]thieno[3,2-b]pyridine-5-carboxamide], under setting [1], the EC50 stood at 9.36 nM. Further, under “Table 2, human M1”, the Emax is 66.2%.
In the case of `Cn1ccc2nc(C(=O)NC3CCOCC3(C)C)cc(Cc3ccc(-c4nccs4)cc3)c21` (stereo not drawn) [Compound 485, N-(3,3-dimethyltetrahydropyran-4-yl)-1-methyl-7-[(4-thiazol-2-ylphenyl)methyl]pyrrolo[3,2-b]pyridine-5-carboxamide], the Emax came out at 61.6%. Further, the EC50 under setting [1] came to 662 nM.
Turning to `COCCNC(=O)c1cc(Cc2ccc(-c3ccn(C)n3)nc2)c2sccc2n1` [Compound 416, N-(2-methoxyethyl)-7-[[6-(1-methylpyrazol-3-yl)-3-pyridyl]methyl]thieno[3,2-b]pyridine-5-carboxamide], the EC50 under setting [1] is 1290 nM. The Emax (Table 2, human M1) is 71.4%.
The corresponding values for `Cn1cc(-c2ccc(Cc3cc(C(=O)NC4CCOCC4)nc4ccn(C)c34)cn2)cn1` [Compound 470, 1-methyl-7-[[6-(1-methylpyrazol-4-yl)-3-pyridyl]methyl]-N-tetrahydropyran-4-yl-pyrrolo[3,2-b]pyridine-5-carboxamide] are 223 nM and 86%.
Regarding `Cc1ccc(Oc2cc(C(=O)N[C@H]3CCOC[C@@H]3O)nc3ccsc23)cn1` [Compound 22, N-[(3R,4S)-3-hydroxytetrahydropyran-4-yl]-7-[(6-methyl-3-pyridyl)oxy]thieno[3,2-b]pyridine-5-carboxamide], the EC50 under setting [2] amounted to 1790 nM.
With `Cc1ccc(Cc2cc(C(=O)Nc3c[nH]cn3)nc3ccsc23)cn1` [Compound 70, N-(1H-imidazol-4-yl)-7-[(6-methyl-3-pyridyl)methyl]thieno[3,2-b]pyridine-5-carboxamide], under setting [1], the EC50 is more than 10000 nM. Further, for the setting “Table 2, human M1”, the Emax worked out at 62.4%.
The corresponding values for `Cn1ccc(-c2ccc(Cc3cc(C(=O)NCC4CCOC4)nc4ccn(C)c34)cn2)n1` (stereo not drawn) [Compound 509, 1-methyl-7-[[6-(1-methylpyrazol-3-yl)-3-pyridyl]methyl]-N-(tetrahydrofuran-3-ylmethyl)pyrrolo[3,2-b]pyridine-5-carboxamide;] are 4320 nM and 75.4%.
Turning to `Cc1ccc(Oc2cc(C(=O)NC3CCCCC3)nc3ccsc23)cn1` [Compound 19, N-cyclohexyl-7-[(6-methyl-3-pyridyl)oxy]thieno[3,2-b]pyridine-5-carboxamide], the EC50 under setting [2] is more than 10000 nM.
As to `Cn1ccc2nc(C(=O)N[C@H]3CCOC[C@@H]3O)cc(Cc3ccc(-n4cccn4)cc3)c21` [Compound 453, N-[(3R,4S)-3-hydroxytetrahydropyran-4-yl]-1-methyl-7-[(4-pyrazol-1-ylphenyl)methyl]pyrrolo[3,2-b]pyridine-5-carboxamide], under setting [1], the EC50 is 6.77 nM. Also, under “Table 2, human M1”, the Emax is 63.1%.
The corresponding values for `O=C(N[C@H]1CCOC1)c1cc(Cc2ccc(-c3nccs3)cc2)c2sccc2n1` [Compound 369, N-[(3S)-tetrahydrofuran-3-yl]-7-[(4-thiazol-2-ylphenyl)methyl]thieno[3,2-b]pyridine-5-carboxamide] are 2290 nM and 59.5%.
The corresponding values for `Cn1ccc(-c2ccc(Cc3cc(C(=O)NC4CCOCC4(C)C)nc4ccsc34)cn2)n1` (stereo not drawn) [Compound 376, N-(3,3-dimethyltetrahydropyran-4-yl)-7-[[6-(1-methylpyrazol-3-yl)-3-pyridyl]methyl]thieno[3,2-b]pyridine-5-carboxamide] are 170 nM and 60.7%.
The corresponding values for `Cc1csc2c(Cc3ccc(-n4cccn4)cc3)cc(C(=O)NCC3CCOCC3)nc12` [Compound 318, 3-methyl-7-[(4-pyrazol-1-ylphenyl)methyl]-N-(tetrahydropyran-4-ylmethyl)thieno[3,2-b]pyridine-5-carboxamide] are 1410 nM and 72.2%.
Regarding `C[C@@H]1CC(NC(=O)c2cc(Cc3ccc(-c4cscn4)cc3)c3c(ccn3C)n2)C[C@H](C)O1` (stereo partly drawn) [Compound 460, N-[(2S,6R)-2,6-dimethyltetrahydropyran-4-yl]-1-methyl-7-[(4-thiazol-4-ylphenyl)methyl]pyrrolo[3,2-b]pyridine-5-carboxamide], under setting [1], the EC50 turned out to be 379 nM. The Emax (Table 2, human M1) is 70.3%.

For orientation: EC50 means the concentration at which the effect is half-maximal. For orientation: Emax means the size of the effect at its maximum, as opposed to the concentration needed.
